US11918693B2, “Ibuprofen and acetaminophen tablet” (GlaxoSmithKline Consumer Healthcare Holdings (US) LLC, priority 2019, dated 2024)

Tested on: pyrexia induced by intravenous reference standard endotoxin (RSE) in healthy males
Type: in vivo, human
Settings: for WSTD0-2 h, Treatment difference vs. Placebo / WSTD0-4 h, Treatment difference vs. Placebo / WSTD0-6 h, Treatment difference vs. Placebo / WSTD0-8 h, Treatment difference vs. Placebo / WSTD6-8 h, Treatment difference vs. Placebo / WSTD50-110 min, Treatment difference vs. Placebo / WSTD80-110 min, Treatment difference vs. Placebo / Period post dose in which subjects' temperatures were significantly reduced relative to placebo / Headache due to RSE, subjects / Nausea due to RSE, subjects / Pyrexia, AE considered related to RSE, subjects: APAP 500 mg; for WSTD50-110 min, LSM / WSTD50-110 min, Mean / WSTD80-110 min, LSM / WSTD80-110 min, Mean: post hoc analysis; for WSTD50-110 min, LSM / WSTD50-110 min, Mean / WSTD80-110 min, LSM / WSTD80-110 min, Mean / WSTD0-2 h, Mean (SD) / WSTD0-4 h, Mean (SD) / WSTD0-6 h, Mean (SD) / WSTD6-8 h, Mean (SD) / WSTD0-8 h, Mean (SD): IBU dose 250 mg, APAP dose 500 mg; for Period post dose in which subjects' temperatures were significantly reduced relative to placebo / WSTD0-2 h, Mean (SD) / WSTD0-4 h, Mean (SD) / WSTD0-6 h, Mean (SD) / WSTD6-8 h, Mean (SD) / WSTD0-8 h, Mean (SD): single oral dose; for WSTD0-8 h, Mean (SD): primary efficacy endpoint; for Headache due to RSE, subjects / Nausea due to RSE, subjects / Pyrexia, AE considered related to RSE, subjects: study drug treatment period
Experimental: This study evaluated the antipyretic efficacy, onset of effect and tolerability of a single dose of FDC IBU/APAP 250 mg/500 mg compared with placebo and each monocomponent at the same dose.
This was a single-center, randomized, double-blind, placebo-controlled, full-factorial study in healthy males aged 18-55 years in whom pyrexia was induced by intravenous administration of a reference standard endotoxin (RSE). After RSE administration and attainment of an oral temperature ≥100.5° F. (38.1° C.), subjects were randomized 3:3:3:1 to receive a single oral dose of FDC IBU/APAP 250 mg/500 mg, APAP 500 mg, IBU 250 mg, or placebo in double-blind fashion. Oral temperature was subsequently measured every 10 minutes for the first 2 hours and then every 30 minutes until 8 hours post dose. Time-weighted sum of temperature differences from baseline to 8 hours (WSTD0-8) after study medication administration was the primary efficacy endpoint. Secondary endpoints included WSTD scores from 0-2, 0-4, 0-6, and 6-8 hours; time to return to “normal” temperature; time to rescue medication use; global drug evaluation. Safety was monitored and assessed via adverse events (AEs).
This was a single-center, randomized, double-blind, placebo-controlled, full-factorial single-dose study in subjects in whom pyrexia was induced by intravenous (IV) administration of a reference standard endotoxin (RSE). In this standardized model, fever was induced by endotoxin (gram-negative bacterial lipopolysaccharide) derived from Escherichia coli O113, which was developed as a national biological reference standard in 1976 by the National Institute of Allergy and Infectious Diseases and the US Food and Drug Administration. The RSE used in this study was supplied by List Biological Laboratories, Inc. (Campbell, CA, USA).
Subject eligibility was determined at a screening visit within 28 days prior to study drug treatment; eligible subjects were assigned sequential subject numbers by the investigator. Subjects were healthy males aged 18-55 years, inclusive, with a normal, stable body temperature at screening and day 0, body mass index of 17.5-37.0 kg/m^2, and total body weight ≥50 kg at screening, demonstrably adequate veins for IV catheter insertion, and who were willing and able to comply with all study procedures. […] Female subjects were not enrolled due to potential teratogenicity concerns associated with the use of the RSE.
Subjects entered the study center on day 0 to confirm eligibility, i.e., afebrile state, defined as a mean oral temperature 97.4° F. to 98.8° F. not varying by more than 0.4° F. on 3 repeated measures over 30 minutes and still meeting inclusion/exclusion criteria. Subjects who remained eligible for the study remained in-house until after completion of all study procedures.
Subjects received prophylactic ondansetron, 8 mg intravenously, approximately 30 minutes prior to administration of the RSE to reduce the likelihood of nausea and vomiting. Prior to RSE administration, changes to prior treatments were recorded; blood pressure and HR were measured; and a 12-lead ECG was obtained. Oral temperatures were recorded, with “normal” for each subject being the temperature recorded immediately prior to RSE administration.
Subject eligibility Subject assessments included physical examination, vital sign measurement, ECG evaluation, and laboratory studies (hematology, serum chemistry, urinalysis). The baseline oral temperature was defined as the temperature reading obtained immediately prior to administration of study medication, after the subject had reached an RSE-induced oral temperature ≥100.5° F. (38.1° C.) that was required for randomization. After randomization and study medication administration, oral temperature was measured using a standardized electronic digital thermometer every 10 minutes for the first 2 hours, and then every 30 minutes until 8 hours post dose. Subjects were assessed for emergence of AEs at each temperature evaluation time point. […]

[1] = first minus second treatment, IBU 250 mg

CC(=O)Nc1ccc(O)cc1 [APAP, N-(4-hydroxyphenyl)acetamide]
WSTD0-2 h, Treatment difference vs. Placebo [1]: 0.60
WSTD0-4 h, Treatment difference vs. Placebo [1]: 1.42
WSTD0-6 h, Treatment difference vs. Placebo [1]: 1.92
WSTD0-8 h, Treatment difference vs. Placebo [1]: 2.35
WSTD6-8 h, Treatment difference vs. Placebo [1]: 0.53
WSTD50-110 min, LSM: 0.135
WSTD50-110 min, Mean: 0.19
WSTD80-110 min, LSM: 0.192
WSTD80-110 min, Mean: 0.23
WSTD50-110 min, Treatment difference vs. Placebo (post hoc, IBU 250 mg): 0.406
WSTD80-110 min, Treatment difference vs. Placebo (post hoc, IBU 250 mg): 0.253
Period post dose in which subjects' temperatures were significantly reduced relative to placebo (IBU 250 mg): 100 to 270 min
WSTD0-2 h, Mean (SD): 0.21 (1.73)
WSTD0-4 h, Mean (SD): 3.41 (3.17)
WSTD0-6 h, Mean (SD): 7.65 (4.60)
WSTD6-8 h, Mean (SD): 5.84 (2.33)
WSTD0-8 h, Mean (SD): 12.39 (6.28)
Headache due to RSE, subjects (IBU 250 mg): 5.7%
Nausea due to RSE, subjects (IBU 250 mg): 9.2%
Pyrexia, AE considered related to RSE, subjects (IBU 250 mg): 29.9%

CC(C)Cc1ccc(C(C)C(=O)O)cc1 (stereo not shown) [IBU, 2-(4-isobutylphenyl) propionic acid]
Subjects who took rescue medication (8-hour treatment period, IBU 250 mg): 1 subject
Global Evaluation of study medication as a fever reducer, in words (ANCOVA analysis, 6-point scale, P<0.05): rated their treatment significantly higher than those in the placebo group
WSTD0-2 h, Treatment difference vs. APAP 500 mg [1]: −0.09
WSTD0-4 h, Treatment difference vs. APAP 500 mg [1]: −0.16
WSTD0-6 h, Treatment difference vs. APAP 500 mg [1]: −0.09
WSTD0-8 h, Treatment difference vs. APAP 500 mg [1]: −0.12
WSTD6-8 h, Treatment difference vs. APAP 500 mg [1]: −0.01
WSTD0-2 h, Treatment difference vs. Placebo [1]: 0.51
WSTD0-4 h, Treatment difference vs. Placebo [1]: 1.26
WSTD0-6 h, Treatment difference vs. Placebo [1]: 1.83
WSTD0-8 h, Treatment difference vs. Placebo [1]: 2.23
WSTD6-8 h, Treatment difference vs. Placebo [1]: 0.51
WSTD50-110 min, LSM: 0.103
WSTD50-110 min, Mean: −0.02
WSTD80-110 min, LSM: 0.190
WSTD80-110 min, Mean: 0.13
WSTD50-110 min, Treatment difference vs. APAP 500 mg (post hoc, IBU 250 mg): −0.032
WSTD80-110 min, Treatment difference vs. APAP 500 mg (post hoc, IBU 250 mg): −0.002
WSTD50-110 min, Treatment difference vs. Placebo (post hoc, IBU 250 mg): 0.374
WSTD80-110 min, Treatment difference vs. Placebo (post hoc, IBU 250 mg): 0.251
Period post dose in which subjects' temperatures were significantly reduced relative to placebo (IBU 250 mg): 100 to 180 min
WSTD0-2 h, Mean (SD): −0.19 (1.86)
WSTD0-4 h, Mean (SD): 2.61 (3.34)
WSTD0-6 h, Mean (SD): 6.65 (4.79)
WSTD6-8 h, Mean (SD): 5.49 (2.26)
WSTD0-8 h, Mean (SD): 11.09 (6.35)
Headache due to RSE, subjects (IBU 250 mg): 14.9%
Nausea due to RSE, subjects (IBU 250 mg): 12.6%
Pyrexia, AE considered related to RSE, subjects (IBU 250 mg): 41.4%
